Assay results as given in patent US4443605A, “7β-Arylalkyl-6α, 7 α-oxymethylene-3-methoxy or 3-hydroxy-4, 5α-epoxy-17 methyl or 17-cycloalkyl-methyl morphinans” (Miles Laboratories, Inc., priority 1982, dated 1984).
Like-named read-outs stand apart in the source and are kept apart here.

Test system: mice
Assay: Acetic Acid Induced Mouse Writhing Test
Format: in vivo, mouse (male CD-1)
Conditions: for ED50: sc
Protocol: Analgesic effects of the test compounds were determined in mice by use of the acetic acid induced writhing test described by B. A. Whittle, Brit. J. Pharmacol., 22:246 (1964). In this test, at least 3 groups of 5 male CD-1 mice each were given subcutaneous doses of the test drug dissolved in distilled water. In all cases, 0.4 mL of a 0.5% v/v acetic acid in distilled water solution was administered intraperitoneally 15 min. post drug. The number of writhes in a 20 min. interval beginning 5 min. after the acetic acid injection were determined and compared with the number of writhes in a control group which had received only acetic acid.
Percent inhibition of writhing was calculated as: [formula]
The ED50 dose, i.e., the dose required to reduce the number of writhes by 50%, was determined graphically from a plot of % inhibition as a probit verus log dose. […] See Lichtfield, J. T. and Wilcoxon, F., J. Pharmacol. Exp. Ther., 96, 99-113 (1949).
The results of this testing, both in terms of μ mole/kg and mg/kg of the compound tested, are set out in table I.

[1] = 0.25 h, Analgesic Activity In Mouse Writhing Assay - Subcutaneous Inj., acetic acid i.p. 15 min post drug, * = d-tartrate salt, read-out: ED50 (mg/kg)
[2] = 0.25 h, Analgesic Activity In Mouse Writhing Assay - Subcutaneous Inj., acetic acid i.p. 15 min post drug, * = d-tartrate salt, read-out: ED50 (μmole/kg)

COc1ccc2c3c1O[C@H]1[C@H]4OC[C@@]4(CCCCc4ccccc4)C[C@H]4[C@@H](C2)N(CC2CCC2)CC[C@@]341 [Compound 23Be]
ED50 [1]: 1.8 mg/kg | ED50 [2]: 2.8 µmol/kg

Oc1ccc2c3c1O[C@H]1[C@H]4OC[C@@]4(CCc4ccccc4)C[C@H]4[C@@H](C2)N(CC2CC2)CC[C@@]341 [Compound 24Pc]
ED50 [1]: 0.018 mg/kg | ED50 [2]: 0.04 µmol/kg

COc1ccc2c3c1O[C@H]1[C@H]4OC[C@@]4(CCc4ccccc4)C[C@H]4[C@@H](C2)N(C)CC[C@@]341 [Compound 17c]
ED50 [1]: 0.5 mg/kg | ED50 [2]: 0.9 µmol/kg

CN1CC[C@]23c4c5ccc(O)c4O[C@H]2[C@H]2OC[C@@]2(CCCCc2ccccc2)C[C@H]3[C@H]1C5 [Compound 20e]
ED50 [1]: 0.014 mg/kg | ED50 [2]: 0.024 µmol/kg

COc1ccc2c3c1O[C@H]1[C@@H]4OC[C@]4(CCCCc4ccccc4)C[C@H]4[C@@H](C2)N(C)CC[C@@]341 [Compound 8, 4,5α-Epoxy-3-methoxy-17-methyl-7α-(4-phenylbutyl)-6β,7β-(oxymethylene)-morphinan]
activity in the acetic acid induced writhing assay (at 10 mg/kg): inactive

COc1ccc2c3c1O[C@H]1[C@H]4OC[C@@]4(CCc4ccccc4)C[C@H]4[C@@H](C2)N(CC2CC2)CC[C@@]341 [Compound 23Pc]
ED50 [1]: 0.26 mg/kg | ED50 [2]: 0.57 µmol/kg

Oc1ccc2c3c1O[C@H]1[C@H]4OC[C@@]4(CCCc4ccccc4)C[C@H]4[C@@H](C2)N(CC2CCC2)CC[C@@]341 [Compound 24Bd]
ED50 [1]: 0.0375 mg/kg | ED50 [2]: 0.06 µmol/kg

COc1ccc2c3c1O[C@H]1[C@H]4OC[C@@]4(CCc4ccccc4)C[C@H]4[C@@H](C2)N(CC2CCC2)CC[C@@]341 [Compound 23Bc]
ED50 [1]: > 10 mg/kg | ED50 [2]: > 16 µmol/kg

COc1ccc2c3c1O[C@H]1[C@H]4OC[C@@]4(CCCCc4ccccc4)C[C@H]4[C@@H](C2)N(CC2CC2)CC[C@@]341 [Compound 23Pe]
ED50 [1]: 0.39 mg/kg | ED50 [2]: 0.61 µmol/kg

CN1CC[C@]23c4c5ccc(O)c4O[C@H]2[C@H]2OC[C@@]2(CCCCCc2ccccc2)C[C@H]3[C@H]1C5 [Compound 20f]
ED50 [1]: 0.017 mg/kg | ED50 [2]: 0.028 µmol/kg

Oc1ccc2c3c1O[C@H]1[C@H]4OC[C@@]4(CCc4ccccc4)C[C@H]4[C@@H](C2)N(CC2CCC2)CC[C@@]341 [Compound 24Bc]
ED50 [1]: 0.177 mg/kg | ED50 [2]: 0.39 µmol/kg

Oc1ccc2c3c1O[C@H]1[C@H]4OC[C@@]4(CCCCc4ccccc4)C[C@H]4[C@@H](C2)N(CC2CC2)CC[C@@]341 [Compound 24Pe]
ED50 [1]: 0.01 mg/kg | ED50 [2]: 0.015 µmol/kg

Oc1ccc2c3c1O[C@H]1[C@H]4OC[C@@]4(CCCCc4ccccc4)C[C@H]4[C@@H](C2)N(CC2CCC2)CC[C@@]341 [Compound 24Be]
ED50 [1]: 0.22 mg/kg | ED50 [2]: 0.05 µmol/kg

CN1CC[C@]23c4c5ccc(O)c4O[C@H]2[C@H]2OC[C@@]2(CCCc2ccccc2)C[C@H]3[C@H]1C5 [Compound 20d]
ED50 [1]: 0.011 mg/kg | ED50 [2]: 0.019 µmol/kg

CN1CC[C@]23c4c5ccc(O)c4O[C@H]2[C@H]2OC[C@@]2(CCc2ccccc2)C[C@H]3[C@H]1C5 [Compound 20c]
ED50 [1]: 0.024 mg/kg | ED50 [2]: 0.048 µmol/kg

COc1ccc2c3c1O[C@H]1[C@H]4OC[C@@]4(CCCc4ccccc4)C[C@H]4[C@@H](C2)N(CC2CC2)CC[C@@]341 [Compound 23Pd]
ED50 [1]: 0.67 mg/kg | ED50 [2]: 1.07 µmol/kg

COc1ccc2c3c1O[C@H]1[C@H]4OC[C@@]4(CCCCCc4ccccc4)C[C@H]4[C@@H](C2)N(C)CC[C@@]341 [Compound 17f]
ED50 [1]: 0.82 mg/kg | ED50 [2]: 1.3 µmol/kg

Oc1ccc2c3c1O[C@H]1[C@H]4OC[C@@]4(CCCc4ccccc4)C[C@H]4[C@@H](C2)N(CC2CC2)CC[C@@]341 [Compound 24Pd]
ED50 [1]: 0.0015 mg/kg | ED50 [2]: 0.003 µmol/kg

COc1ccc2c3c1O[C@H]1[C@H]4OC[C@@]4(CCCc4ccccc4)C[C@H]4[C@@H](C2)N(C)CC[C@@]341 [Compound 17d]
ED50 [1]: 0.027 mg/kg | ED50 [2]: 0.046 µmol/kg

COc1ccc2c3c1O[C@H]1[C@H]4OC[C@@]4(CCCCc4ccccc4)C[C@H]4[C@@H](C2)N(C)CC[C@@]341 [Compound 17e]
ED50 (Mus musculus, acetic acid induced writhing assay, contrasted with compound 8, read-out: ED50 in the same assay): 0.003 mg/kg | ED50 [1]: 0.0028 mg/kg | ED50 [2]: 0.005 µmol/kg

COc1ccc2c3c1O[C@H]1[C@H]4OC[C@@]4(CCCc4ccccc4)C[C@H]4[C@@H](C2)N(CC2CCC2)CC[C@@]341 [Compound 23Bd]
ED50 [1]: 2.8 mg/kg | ED50 [2]: 4.4 µmol/kg
